We go through two molecules from US6458760B1, “Method for treating tissue damaged from ischemia” (Henry Ford Health System, priority 1998, dated 2002).

In one test the target is Cathepsin L (Homo sapiens, UniProt P07711). Kind of test: Cathepsin L inactivation rate, fluorimetric progress curves. The test is classed as biochemical. The following applies: second order inactivation rate constant corrected for substrate; substrate Z-Phe-Arg-AMC; pH 5.4, 30° C. As for the experimental part:
(§1) (“Tian, et al.”) the contents of which are incorporated by reference. More specifically, the value of kobs is given by the slope of a plot of ln [P]∞−[p]t versus t (time). The apparent second-order rate contact for inactivation, k2app was calculated as kobs/[I]. The inactivation-rates (kobs) in the presence of substrate and for different inhibitor concentrations for calpain, cathepsin B and cathepsin L are determined according to the method of Tian, et al. However, k2app is corrected for the presence of substrate (s) to give the second order rate constant k^12app, calculated as k^12app=k2app (1+[s]/Km).
Cathepsins B and L were preactivated with […] DTT in 50 mM sodium acetate buffer, pH 5.4, 1 mM EDTA for 2 h at 4° C. and assayed in the same buffer with 0.01% Brij [poly(oxyethylene) glycol dodecyl ether]. 5 μM (final concentration) CBZ-Phe-Arg-AMC was used as substrate for both for cathepsins B and L. The inhibitors (0.1-1 μM) and substrate were added to the reaction mixture to incubate for 5 min in a cuvette thermostated at 30° C. Then, approximately 0.4 nM and 0.1 nM final concentration of cathepsin B and cathepsin L, respectively, were used to initiate the reaction. […] The progress curves were analyzed over at least 3 half lives to calculate the rate constants of inactivation in accordance with the procedure described by Crawford, C. Mason, R. W., Wilkström, P., and Shaw, E. in an article entitled “The design of peptidyldiazomethane inhibitors to distinguish between the cysteine proteinases calpain II, cathepsin L and cathepsin B.”, Biochem. J. 1988, 253, 751-758, the contents of which are incorporated by reference. The rates of inactivation of various substrates are tabulated hereinbelow.

The test system of test [1] is Wistar rats with MCA occlusion. Nature of the test: Stroke model, 2 h MCA occlusion, i.v. infusion after reperfusion, infarct volume at 7 days. The format is in vivo, rat. The following applies: 2 h MCA occlusion; for % Hemisphere Infarct Volume (% ± SEM): day 7, control 37 ± 2.6. As for the experimental part:
Male Wistar rat weighing between 270-290 gm are fasted the night prior to surgery. Each rat was then anesthetized with 3.5% halothane, and spontaneously respired with 0.5% halothane in a 2:1 N2O:O2 mixture using a face mask. A normal range of blood gases and pH is maintained during ischemia and reperfusion with the face mask inhalation, as verified by samples taken from a femoral artery PE-50 catheter. Body temperature is maintained constant at 37° C. with a recirculating heating pad and K module with an intrarectal type T thermocouple. The PE-50 catheters are inserted into the femoral artery and vein following induction of anesthesia to obtain the blood gas, glucose and hemoglobin concentrations and to monitor blood pressure.
The right common carotid artery, external carotid artery and internal carotid artery are isolated using microsurgical techniques. A clamp is applied to the common carotid artery and a 4-0 nylon suture with a rounded tip is inserted into the external carotid artery through a small puncture. The clamp on the common carotid artery is removed. The suture is passed distally into the internal carotid artery until it blocks the middle cerebral artery. Two hours after the MCA occlusion, the animal is again anesthetized, and the nylon suture is removed from the internal carotid artery.
Infusion of the inhibitor or vehicle is done by intravenous infusion via the femoral vein.
Syringe pumps were filled under sterile conditions with either isotonic saline/1% DMSO solution as the control or with the concentration of CP-1 or CP-2 indicated in the examples, hereinbelow. The pumps delivered the solution at a rate of 15 μl/min for up to 4 hours.
After anesthesia had been induced in the rat, a catheter was inserted into the femoral vein and tunneled subcutaneously in the posterior neck region. Body temperature was maintained at a constant temperature of 37° C. during surgical procedures. The animals underwent 2 hours of MCA occlusion, and then reperfusion when the suture was withdrawn, and immediately thereafter, the drug was infused for four hours. The animals were killed after a 7-day reperfusion, and the brains were formalin fixed and sliced 6-μm thick into seven coronal sections A-G, and mounted on coated slides. After staining with hematoxylin and eosin, the stroke volume was measured using an image analysis program. The stroke area and the contralateral hemispheric area were calculated by tracing the areas on the computer screen, and the volumes were determined by multiplying the appropriate area by the section interval thickness. The stroke volume is expressed as the percentage of lesion size to the volume of contralateral hemisphere. Statistical analysis was performed using the independent t-test.
CP-1 dissolved in 1% DMSO and isotonic saline was given intravenously to Wistar rats (15 μl/min) at concentrations of 2 μM, 10μM, 50μM and 25μM for 4 hours immediately after reperfusion following two hours of MCA occlusion, in accordance with the procedure described hereinabove. Control animals underwent a similar protocol but they had injected therein 1% DMSO/Saline as the vehicle within four hours. All animals which survived 7 days were sacrificed and the stroke volume calculated. The results are tabulated hereinbelow:
The protocol described hereinabove was repeated with CP-2 used in lieu of CP-1, at doses of 10, 50, 250 and 500 μM.

For the next test, the target named is Cathepsin B (Homo sapiens, UniProt P07858). Kind of test: Cathepsin B inactivation rate, fluorimetric progress curves. The test is classed as biochemical. The note with it: second order inactivation rate constant corrected for substrate; pH 5.4, 30° C. As for the experimental part: as §1
Cathepsins B and L were preactivated with […] DTT in 50 mM sodium acetate buffer, pH 5.4, 1 mM EDTA for 2 h at 4° C. and assayed in the same buffer with 0.01% Brij [poly(oxyethylene) glycol dodecyl ether]. […] The inhibitors (0.1-1 μM) and substrate were added to the reaction mixture to incubate for 5 min in a cuvette thermostated at 30° C. Then, approximately 0.4 nM and 0.1 nM final concentration of cathepsin B and cathepsin L, respectively, were used to initiate the reaction. […] The progress curves were analyzed over at least 3 half lives to calculate the rate constants of inactivation in accordance with the procedure described by Crawford, C. Mason, R. W., Wilkström, P., and Shaw, E. in an article entitled “The design of peptidyldiazomethane inhibitors to distinguish between the cysteine proteinases calpain II, cathepsin L and cathepsin B.”, Biochem. J. 1988, 253, 751-758, the contents of which are incorporated by reference. The rates of inactivation of various substrates are tabulated hereinbelow.

For another test, the system named is Calpain. Kind of test: Calpain inactivation rate, fluorimetric progress curves. The test is classed as biochemical. The note with it: second order inactivation rate constant corrected for substrate; substrate Suc-Leu-Tyr-AMC; pH 7.5, 37° C. Here is the method:
as §1
Calpain was assayed fluorimetrically in 1 ml of 50 mM Tris/acetate buffer, pH 7.5, containing 5 mM CaCl2, 2.5 mM DTT(dithiothreitol), 0.1% Triton X-100 at 37° C., using 2.5×10^−4 M Suc-Leu-Tyr-aminomethylcoumarin (AMC) (Novabiochem, Switzerland) as substrate and 50nM (final concentration) of enzyme. The appearance of the 7-amino-4 methylcoumarin product was recorded continuously with a Perkin Elmer 650-10S spectrofluorimeter, a SPEX Fluorolog 1680, or SLM 8000C fluorescence spectrometer with excitation at 370 nm and emission at 460 nm.
Typically, 5 μL of the substrate solution (50 mM stock in DMSO) was added to 1 mL of buffer. Varying concentrations of the inhibitor solution (10 μL of a DMSO […] solution) were added, followed by 10 μL of calpain in the assay buffer. After allowing the reaction mixture to incubate for 2-5 min, during which time a steady baseline level of fluorescence was measured, calcium was added in a 10-μL volume to initiate hydrolysis of the fluorogenic substrate, and the resulting increase in fluorescence was monitored continuously. When inhibitors were tested at very low concentrations, the enzyme concentration was reduced to maintain a minimum of a 10-fold excess of inhibitor over enzyme.

In test [2] the test system is rats with middle cerebral artery occlusion. Nature of the test: Stefin A in rat stroke model, infarcted brain tissue volume. The note with it: compared to animals without inhibitor. The format is in vivo. The text has this:
The inventors have used a stroke model in rats, explained in more detail hereinbelow, to verify this. In this model, a nylon monofilament is advanced through the vasculature of anesthetized rats until it blocks the middle cerebral artery. The monofilament is left in place for two hours. Withdrawal of the monofilament initiates reperfusion of the ischemic tissue. The extent of damage is visualized seven days after the ischemic event by removing the brain of the animal and examining it in section.
The initial cathepsin inhibitor used by the inventors was a large naturally occurring molecule, stefin A (MW 15,000). In the stroke model, this molecule was administered intraventricularly in some studies prior to the occlusion and intravenously upon reperfusion in others.

Residues, ends and D or L forms follow the SMILES beside them. *: point of attachment. Cbz = O=C(OCc1ccccc1)*; CHN2 = [N-]=[N+]=C*; tBu = CC(C)(C)*

Chain of Cathepsin L (P07711 114-333, species assumed): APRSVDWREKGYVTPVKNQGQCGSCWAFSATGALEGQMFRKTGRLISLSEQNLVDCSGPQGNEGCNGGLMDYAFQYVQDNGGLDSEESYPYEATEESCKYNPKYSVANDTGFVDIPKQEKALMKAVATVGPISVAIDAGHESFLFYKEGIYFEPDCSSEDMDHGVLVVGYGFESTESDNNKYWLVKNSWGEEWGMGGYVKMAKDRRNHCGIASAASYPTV

As for `CC(C)(C)Oc1ccc(CC(NC(=O)C(Cc2ccccc2)NC(=O)OCc2ccccc2)C(=O)C=[N+]=[N-])cc1` (stereo not drawn) [CP-2, benzyloxycarbonyl-Phe-Tyr(OtBu)-CHN2] (Cbz-Phe-Tyr(tBu)-CHN2; configuration not given here), the “Cathepsin L k′2app” value at Cathepsin L is listed as 200,000 M^−1S^−1. The “% Hemisphere Infarct Volume (% ± SEM)” value is given as 28 ± 4.6, p > 0.05% in test [1] (10 μM i.v. 15 μl/min for 4 h after reperfusion); 35 ± 4.8, p > 0.05% in test [1] (50 μM i.v. 15 μl/min for 4 h after reperfusion); 21 ± 4.7, p = 0.01% in test [1] (250 μM i.v. 15 μl/min for 4 h after reperfusion); 22 ± 3.5, p = 0.004% in test [1] (500 μM i.v. 15 μl/min for 4 h after reperfusion). Moreover, the “effectiveness in reducing stroke damage” value in test [1] (doses 10, 50, 250 and 500 μM) was “High doses of CP-2 were effective, but not the lower doses”. The “Cathepsin B k′2app” value at Cathepsin B came to 10 M^−1S^−1. Also, in the test with Calpain, the “Calpain k′2app” value was below 10 M^−1S^−1.

B1: stefin A: large naturally occurring molecule (MW 15,000), cathepsin inhibitor, recombinant preparation, used as control (protein, UniProt P01040 1-98, looked up)
Cystatin-A: MIPGGLSEAKPATPEIQEIVDKVKPQLEEKTNETYGKLEAVQYKTQVVAGTNYYIKVRAGDNKYMHLKVFKSLPGQNEDLVLTGYQVDKNKDDELTGF
B1: the “reduction in the volume of the infarcted brain tissue” value in test [2] (administered intravenously upon reperfusion) and in test [2] (administered intraventricularly prior to the occlusion) was around 40% throughout.
